The assay has as its system citrus greening (HLB). The assay is classed as in vivo, orange tree.

Data on one molecule can be found in patent US20130281298A1 (priority 2012, published 2013).

In the case of `OC[C@H]1O[C@H](O[C@H]2O[C@H](CO)[C@@H](O)[C@H](O)[C@H]2O)[C@H](O)[C@@H](O)[C@@H]1O` [trehalose], the “new leaf formation on apparently dead branches” value (as late as four months after treatment, tree seriously afflicted with citrus greening) is reported as “new leaves that are formed even on apparently dead branches”. Further, the “condition of tree after foliar treatment” value (four months after one foliar treatment to the canopy of leaves, 1 gram trehalose per 1 gallon of water, 100 gallons/acre) is recorded as “nearly complete renewal of the tree”. Besides, the development of flowers result (three months after single foliar treatment) is reported as “prolific development of flowers”.
